Read-outs that look alike come from different tables or passages of the source.
Tested on: HCT 116 MTAP knockout cells
Assay: Human colon cancer HCT116 cell proliferation inhibition test (MTAP knockout cells, CellTiter-Glo, 6 days)
Assay type: cell-based
Description: • 1. HCT 116 MTAP knockout and MTAP wild-type cells were plated in 96-well flat bottom 5 plates, and cultured overnight with McCoy's 5A medium containing […]+1% penicillin-streptomycin at 37° C. and 5% CO2. • 2. On the next day, the compound was dissolved with DMSO, diluted with DMSO and medium successively and transferred to the cell plate. The final concentration of the compound was 10 μM, the compound was diluted 4 times, with 9 concentration gradients, and DMSO control was added. • 3. Cells that have not been treated with the compound were removed. CellTiter-Glo Luminescent Cell Viability Assay (Promega) was used to detect cell viability, the operation was performed with reference to the package insert of the kit, and then the cell plate was placed on EnVision Multilabel Reader to detect the cold light signal. • 4. Meanwhile, the cell plate treated with the compound was cultured at 37° C. and 5% CO2 for 6 consecutive days. • 5. Then, CellTiter-Glo was also used to detect cell viability. • 6. Finally, the four-parameter dose-response curve module of GraphPad Prism v 9.2.0 software was used to plot the dose-response curve and calculate the IC50 for proliferation inhibition (unit: nM).

| Structure (SMILES) | IC50 [µM] | IC50 (Homo sapiens, HCT-116, 144 h) [µM] |
| --- | --- | --- |
| Cn1ncc(-c2cc(C#N)c3c(=O)[nH]nc(CN)c3c2)c1-c1c(F)cc2ccccc2c1C#N (atropisomer, axis not shown; (M)) [Example 5, (M)-1-(aminomethyl)-7-(5-(1-cyano-3-fluoronaphthalen-2-yl)-1-methyl-1H-pyrazol-4-yl)-4-oxo-3,4-dihydrophthalazine-5-carbonitrile] | 0.016 | – |
| C#Cc1cc(-c2cnn(C)c2-c2c(F)c(Cl)cc(N3CCCC3)c2C#N)cc2c(CN)n[nH]c(=O)c12 [Example 10, 2-(4-(4-(aminomethyl)-8-ethynyl-1-oxo-1,2-dihydrophthalazin-6-yl)-1-methyl-1H-pyrazol-5-yl)-4-chloro-3-fluoro-6-(pyrrolidin-1-yl)benzonitrile] | – | 0.012 |
| Cn1ncc(-c2cc(-c3ccccc3)c3c(=O)[nH]nc(CN)c3c2)c1-c1c(F)c(Cl)cc(OC2CC2)c1C#N [Example 13, 2-(4-(4-(aminomethyl)-1-oxo-8-phenyl-1,2-dihydrophthalazin-6-yl)-1-methyl-1H-pyrazol-5-yl)-4-chloro-6-cyclopropoxy-3-fluorobenzonitrile] | – | 0.122 |
| Cn1ncc(-c2ccc3c(=O)[nH]nc(CN)c3c2)c1-c1c(F)c(N2CCC2)cc(OC2CC2)c1C#N [Example 17, 2-(4-(4-(aminomethyl)-1-oxo-1,2-dihydrophthalazin-6-yl)-1-methyl-1H-pyrazol-5-yl)-4-(azetidin-1-yl)-6-cyclopropoxy-3-fluorobenzonitrile] | – | 0.113 |
| CC1CCCN1c1cc(Cl)c(F)c(-c2c(-c3ccc4c(=O)[nH]nc(CN)c4c3)cnn2C)c1C#N (centres unmarked) [Example 20, 2-(4-(4-(aminomethyl)-1-oxo-1,2-dihydrophthalazin-6-yl)-1-methyl-1H-pyrazol-5-yl)-4-chloro-3-fluoro-6-(2-methylpyrrolidin-1-yl)benzonitrile] | – | 0.061 |
| Cn1ncc(-c2ccc3c(=O)[nH]nc(CN)c3c2)c1-c1c(F)c(Cl)cc(N2C3CCC2CC3)c1C#N [Example 21, 2-(4-(4-(aminomethyl)-1-oxo-1,2-dihydrophthalazin-6-yl)-1-methyl-1H-pyrazol-5-yl)-6-(7-azabicyclo[2.2.1]heptan-7-yl)-4-chloro-3-fluorobenzonitrile] | – | 0.161 |
| CN(C)C1CCN(c2cc(OC3CC3)c(C#N)c(-c3c(-c4ccc5c(=O)[nH]nc(CN)c5c4)cnn3C)c2F)C1 (centres unmarked) [Example 27, 2-(4-(4-(aminomethyl)-1-oxo-1,2-dihydrophthalazin-6-yl)-1-methyl-1H-pyrazol-5-yl)-6-cyclopropoxy-4-(3-(dimethylamino)pyrrolidin-1-yl)-3-fluorobenzonitrile] | – | 0.262 |
| Cn1ncc(-c2ccc3c(=O)[nH]nc(CN)c3c2)c1-c1c(F)c(Cl)cc(N2CC3(C2)CC(F)(F)C3)c1C#N [Example 31, 2-(4-(4-(aminomethyl)-1-oxo-1,2-dihydrophthalazin-6-yl)-1-methyl-1H-pyrazol-5-yl)-4-chloro-6-(6,6-difluoro-2-azaspiro[3.3]heptan-2-yl)-3-fluorobenzonitrile] | – | 0.093 |
| Cn1ncc(-c2ccc3c(=O)[nH]nc(CN)c3c2)c1-c1c(F)c(Cl)cc(N2CCC2)c1C#N [Example 32, 2-(4-(4-(aminomethyl)-1-oxo-1,2-dihydrophthalazin-6-yl)-1-methyl-1H-pyrazol-5-yl)-6-(azetidin-1-yl)-4-chloro-3-fluorobenzonitrile] | – | 0.057 |
| Cn1ncc(-c2ccc3c(=O)[nH]nc(CN)c3c2)c1-c1c(F)c(Cl)cc(N2CC(F)C2)c1C#N [Example 34, 2-(4-(4-(aminomethyl)-1-oxo-1,2-dihydrophthalazin-6-yl)-1-methyl-1H-pyrazol-5-yl)-4-chloro-3-fluoro-6-(3-fluoroazetidin-1-yl)benzonitrile] | – | 0.084 |
| Cn1ncc(-c2ccc3c(=O)[nH]nc(CN)c3c2)c1-c1c(F)c(Cl)cc(N2CC(C)(O)C2)c1C#N [Example 35, 2-(4-(4-(aminomethyl)-1-oxo-1,2-dihydrophthalazin-6-yl)-1-methyl-1H-pyrazol-5-yl)-4-chloro-3-fluoro-6-(3-hydroxy-3-methylazetidin-1-yl)benzonitrile] | – | 0.922 |

Other lines, results leading:

| IC50 [µM] | IC50 (Homo sapiens, HCT-116, 144 h) [µM] | Structure (SMILES) |
| --- | --- | --- |
| 0.188 | – | Cn1ncc(-c2cc(C#N)c3c(=O)[nH]nc(CN)c3c2)c1-c1c(F)cc2ccccc2c1C#N (atropisomer, axis not shown; (P)) [Example 4, (P)-1-(aminomethyl)-7-(5-(1-cyano-3-fluoronaphthalen-2-yl)-1-methyl-1H-pyrazol-4-yl)-4-oxo-3,4-dihydrophthalazine-5-carbonitrile] |
| – | 0.027 | C#Cc1cc(-c2cnn(C)c2-c2c(F)c(Cl)cc(OC3CC3)c2C#N)cc2c(CN)n[nH]c(=O)c12 [Example 7, 2-(4-(4-(aminomethyl)-8-ethynyl-1-oxo-1,2-dihydrophthalazin-6-yl)-1-methyl-1H-pyrazol-5-yl)-4-chloro-6-cyclopropoxy-3-fluorobenzonitrile] |
| – | 0.184 | Cn1ncc(-c2cc(C3CC3)c3c(=O)[nH]nc(CN)c3c2)c1-c1c(F)c(Cl)cc(N2CCCC2)c1C#N [Example 11, 2-(4-(4-(aminomethyl)-8-cyclopropyl-1-oxo-1,2-dihydrophthalazin-6-yl)-1-methyl-1H-pyrazol-5-yl)-4-chloro-3-fluoro-6-(pyrrolidin-1-yl)benzonitrile] |
| – | 1.97 | Cn1ncc(-c2cnc3c(=O)[nH]nc(CN)c3c2)c1-c1c(F)cc2ccccc2c1C#N [Example 12, 2-(4-(5-(aminomethyl)-8-oxo-7,8-dihydropyrido[2,3-d]pyridazin-3-yl)-1-methyl-1H-pyrazol-5-yl)-3-fluoro-1-naphthalenenitrile] |
| – | 0.1 | Cn1ncc(-c2ccc3c(=O)[nH]nc(CN)c3c2)c1-c1c(F)c(N2CCOCC2)cc(OC2CC2)c1C#N [Example 15, 2-(4-(4-(aminomethyl)-1-oxo-1,2-dihydrophthalazin-6-yl)-1-methyl-1H-pyrazol-5-yl)-6-cyclopropoxy-3-fluoro-4-morpholinobenzonitrile] |
| – | 0.116 | Cn1ncc(-c2ccc3c(=O)[nH]nc(CN)c3c2)c1-c1c(F)c(Cl)cc(N2CCCCC2)c1C#N [Example 22, 2-(4-(4-(aminomethyl)-1-oxo-1,2-dihydrophthalazin-6-yl)-1-methyl-1H-pyrazol-5-yl)-4-chloro-3-fluoro-6-(piperidin-1-yl)benzonitrile] |
| – | 0.229 | CN(C)C1CN(c2cc(OC3CC3)c(C#N)c(-c3c(-c4ccc5c(=O)[nH]nc(CN)c5c4)cnn3C)c2F)C1 [Example 24, 2-(4-(4-(aminomethyl)-1-oxo-1,2-dihydrophthalazin-6-yl)-1-methyl-1H-pyrazol-5-yl)-6-cyclopropoxy-4-(3-(dimethylamino)azetidin-1-yl)-3-fluorobenzonitrile] |
| – | 0.567 | Cn1ncc(-c2ccc3c(=O)[nH]nc(CN)c3c2)c1-c1c(F)c(N2CCC(O)C2)cc(OC2CC2)c1C#N (centres unmarked) [Example 25, 2-(4-(4-(aminomethyl)-1-oxo-1,2-dihydrophthalazin-6-yl)-1-methyl-1H-pyrazol-5-yl)-6-cyclopropoxy-3-fluoro-4-(3-hydroxypyrrolidin-1-yl)benzonitrile] |
| – | 0.057 | Cn1ncc(-c2ccc3c(=O)[nH]nc(CN)c3c2)c1-c1c(F)c(Cl)cc(N2CCC3(CC2)CC3(F)F)c1C#N [Example 33, 2-(4-(4-(aminomethyl)-1-oxo-1,2-dihydrophthalazin-6-yl)-1-methyl-1H-pyrazol-5-yl)-4-chloro-6-(1,1-difluoro-6-azaspiro[2.5]octan-6-yl)-3-fluorobenzonitrile] |

Reference: patent US20240408088A1, “PYRAZOLE DERIVATIVE, AND PREPARATION METHOD THEREFOR AND USE THEREOF IN MEDICINE” (Abbisko Therapeutics Co., Ltd., priority 2021, published 2024)
